The conditions of data set [1]: starting material.
Protocol: Thermogravimetric Analysis (TGA)
Thermogravimetric analysis was carried out using a Mettler TG 50 linked to a Mettler MT5 balance. Data was processed using Mettler Toledo STAR software Version 5.1 with a Solaris operating system. Sample weights were between 5 and 10 mg and analysis was carried out under nitrogen purge. The scans were run from 30 to 350° C. at a heating rate of 10° C./minute. Two TGA scans were obtained for each system.
Data set [2] is described as follows: Scanning electron microscopy (SEM) particle diameter. Type of data set: physicochemical. Conditions: for Particle diameters by SEM: spray dried from ethanolic solution. An excerpt: Scanning Electron Microscopy (SEM)
The scanning electron microscope used was the Hitachi S-3500N variable pressure scanning electron microscope. Samples were mounted and sputtered with gold spray for SEM.
The scanning electron microscope used was the Hitachi S-3500N variable pressure scanning electron microscope. Samples were mounted on aluminium stubs and spluttered with gold spray for SEM.

A value given as a limit tells only on which side of the number the result lay.

With `COc1ccc(C[C@@H](C)NC[C@H](O)c2ccc(O)c(NC=O)c2)cc1.COc1ccc(C[C@@H](C)NC[C@H](O)c2ccc(O)c(NC=O)c2)cc1.O=C(O)/C=C/C(=O)O` [Formoterol fumarate, formoterol fumarate], the “Temperature from which TGA mass loss due to degradation occurs” value in data set [1] is at least 150 °C. In data set [2] (starting material, not spray dried), the “Average particle diameter by SEM” value is 0.5-5 μm.

In the case of `CC(C)[N+]1(C)[C@@H]2CC[C@H]1CC(OC(=O)C(CO)c1ccccc1)C2.[Br-]` (stereo partly shown) [Ipratropium bromide, ipratropium bromide], the “Particle diameters by SEM” value in data set [2] is reported as at least 60 μm.

As for salbutamol sulphate, the “Particle diameters by SEM” value in data set [2] is listed as under 3 μm.
